The subject of one test is A/WSN/33 virus. The experiment in a line: Influenza A viral growth assay (viral titer of culture media). The class given is cell-based, influenza A H1N1 virus. The conditions noted are these: A/WSN/33 (WSN), 12.5uM; for viral titer of culture media, ave: average of #1-3 exp (n=9); for viral titer of culture media, individual replicate: replicates of #1-3 exp.
The test system of the next test is A/PR/8/34 virus. Described as above. The class given is cell-based, influenza A H1N1 virus. The conditions noted are these: A/PR/8/34 (PR8), 12.5uM; for viral titer of culture media, ave: average of #1-3 exp (n=9); for viral titer of culture media, individual replicate: replicates of #1-3 exp. Also noted: viral titer of culture media, individual replicate / viral titer of culture media, ave: unit not given here.

Several values for one entry are separate records, joined by “and”; a condition that tells them apart may be missing. Equal entries are not always repeated.

In the case of `C=C[C@]1(C)CC[C@@H](C(=C)C)[C@H](c2ccc(O)cc2)C1` [(1R,3S,4S)-cyclobakuchiol B], the “viral titer of culture media, ave” value came to 12633.3 in the test on A/WSN/33 virus (12h); 25455556 in the test on A/WSN/33 virus (24h); 275666667 with A/WSN/33 virus (48h); 208055556 in the test with A/WSN/33 virus (72h); 24444.4 in the test on A/PR/8/34 virus (12h); 30000 in the test with A/PR/8/34 virus (24h). Further, the “viral titer of culture media, ave” value with A/PR/8/34 virus (48h) amounted to 41111.1; in the test with A/PR/8/34 virus (72h), 58888.9. The “viral titer of culture media, individual replicate” value (“viral titer … individual replicate” for short) with A/WSN/33 virus (12h) is 1000 (2×) and 1700 and 10000 (3×) and 20000 (2×) and 40000; with A/WSN/33 virus (24h) it was 2000000 (2×) and 300000 and 80000000 and 30000000 and 16000000 and 40000000 and 8800000 and 50000000; in the test on A/WSN/33 virus (48h), 100000000 and 160000000 and 61000000 and 430000000 and 420000000 and 440000000 and 180000000 and 300000000 and 390000000; in the test on A/WSN/33 virus (72h) it was 35000000 and 20000000 and 27500000 and 320000000 and 390000000 and 350000000 and 250000000 and 280000000 and 200000000; in the test on A/PR/8/34 virus (12h) it was 70000 and 30000 (2×) and 10000 (3×) and 20000 (3×); in the test on A/PR/8/34 virus (24h), 60000 and 50000 (2×) and 20000 (3×) and 10000 (2×) and 30000. Moreover, the “viral titer … individual replicate” value is 40000 (3×) and 30000 (2×) and 80000 (2×) and 20000 and 10000 with A/PR/8/34 virus (48h); 30000 (2×) and 40000 and 20000 and 10000 (2×) and 250000 and 80000 and 60000 in the test on A/PR/8/34 virus (72h).

On to `C=C[C@]1(C)CC[C@@H](C(C)(C)O)[C@H](c2ccc(O)cc2)C1` [(1R,3S,4S)-cyclobakuchiol D], for which the “viral titer of culture media, ave” value came to 10344.4 in the test on A/WSN/33 virus (12h); 25855556 in the test with A/WSN/33 virus (24h); 191111111 with A/WSN/33 virus (48h); 140200000 with A/WSN/33 virus (72h); 23333.3 in the test with A/PR/8/34 virus (12h); 46666.7 with A/PR/8/34 virus (24h). The “viral titer of culture media, ave” value with A/PR/8/34 virus (48h) was found to be 42222.2; in the test on A/PR/8/34 virus (72h), 51111.1. Also, the “viral titer … individual replicate” value was 600 and 2000 and 500 and 20000 (3×) and 10000 (3×) in the test on A/WSN/33 virus (12h); 2700000 and 4000000 and 1000000 and 30000000 (2×) and 10000000 and 80000000 and 25000000 and 50000000 in the test on A/WSN/33 virus (24h); 80000000 and 50000000 (2×) and 300000000 (2×) and 250000000 (3×) and 190000000 in the test with A/WSN/33 virus (48h); 90000000 and 14000000 and 7800000 and 140000000 and 130000000 and 100000000 and 210000000 and 280000000 and 290000000 in the test with A/WSN/33 virus (72h); 30000 (4×) and 40000 and 20000 and 10000 (3×) in the test with A/PR/8/34 virus (12h); 100000 and 30000 and 80000 and 20000 and 10000 (2×) and 50000 (2×) and 70000 with A/PR/8/34 virus (24h). The “viral titer … individual replicate” value with A/PR/8/34 virus (48h) was 40000 (2×) and 30000 and 90000 and 10000 (2×) and 20000 and 80000 and 60000; with A/PR/8/34 virus (72h), 100000 (2×) and 10000 (3×) and 40000 and 20000 and 90000 and 80000.

`C=C[C@@](C)(/C=C/c1ccc(O)cc1)CCC=C(C)C` [天然型バクチオール]: the “viral titer … individual replicate” value with A/WSN/33 virus (12h) is 900 and 300 and 1100 and 30000 (2×) and 10000 (3×) and 50000; with A/WSN/33 virus (24h), 300000 and 1500000 and 900000 and 7000000 and 16000000 and 9000000 and 20000000 and 5000000 and 70000000; in the test with A/WSN/33 virus (48h), 50000000 and 74000000 and 26000000 and 320000000 and 280000000 and 330000000 and 260000000 and 290000000 and 350000000; in the test with A/WSN/33 virus (72h) it was 10000000 and 29000000 and 52000000 and 150000000 and 240000000 and 210000000 and 200000000 (2×) and 260000000; in the test on A/PR/8/34 virus (12h), 10000 (4×) and 30000 (3×) and 40000 (2×); in the test with A/PR/8/34 virus (24h), 50000 and 10000 (5×) and 40000 (2×) and 20000. Moreover, the “viral titer … individual replicate” value with A/PR/8/34 virus (48h) was 50000 and 20000 and 40000 and 10000 (3×) and 30000 (3×); with A/PR/8/34 virus (72h), 30000 (2×) and 20000 (2×) and 40000 (2×) and 10000 (2×) and 80000. The “viral titer of culture media, ave” value with A/WSN/33 virus (24h) turned out to be 14411111; in the test on A/WSN/33 virus (48h), 220000000; in the test with A/WSN/33 virus (72h) it was 150111111; in the test on A/PR/8/34 virus (24h) it was 22222.2; in the test with A/PR/8/34 virus (48h), 25555.6; in the test with A/PR/8/34 virus (72h), 31111.1.

These data come from publication PMC7997032, “Organic synthesis and anti-influenza A virus activity of cyclobakuchiols A, B, C, and D” (PLoS ONE, 2021).
